According to the NIST ThermoML archive (doi:10.1021/acs.jced.8b00680):
Values joined by “and” are separate entries in the source; they are usually repeats but may differ in a detail not shown here. Equal values may be shown once. ± gives the expanded uncertainty stated by the source.

Details: Liquid, Ebulliometric method (Recirculating still)

CCCCCCCCC [nonane]
Details | vapor or sublimation pressure [kPa]
392.17 K | 40 ± 1.1
392.77 K | 39.96 ± 0.9
399.76 K | 49.24 ± 0.94
404.65 K | 58.04 ± 1
409.14 K | 66.68 ± 1.1
413.23 K | 75.48 ± 1.1
417.05 K | 84.18 ± 1.2
420.83 K | 93.72 ± 1.3
423.88 K | 101.7 ± 1.3

CCCCCCCO [heptan-1-ol]
Details | vapor or sublimation pressure [kPa]
419.4 K | 40 ± 1.1
420.4 K | 40.12 ± 0.96
423 K | 44.2 ± 0.96
426.27 K | 49.44 ± 1
430.35 K | 56.78 ± 1.1
433.75 K | 63.5 ± 1.1
438.22 K | 73.4 ± 1.2
441.44 K | 81.04 ± 1.2
444.34 K | 88.14 ± 1.2

CCCCCO [pentan-1-ol]
Details | vapor or sublimation pressure [kPa]
384.45 K | 40 ± 1.1
384.85 K | 40.01 ± 1
392.76 K | 54.41 ± 1.1
398.11 K | 66.15 ± 1.2
400.95 K | 72.93 ± 1.3
404.59 K | 82.75 ± 1.3
407.17 K | 90.21 ± 1.4
410.73 K | 101.2 ± 1.4

CCCCCCCCCCO [decan-1-ol]
Details | vapor or sublimation pressure [kPa]
469.23 K | 40 ± 1.1
469.83 K | 40.03 ± 0.91
472.98 K | 44.4 ± 0.92
475.4 K | 47.97 ± 0.94
476.8 K | 50.19 ± 0.94
479.42 K | 54.07 ± 0.94
481.36 K | 57.04 ± 0.95
484.05 K | 61.26 ± 0.96
487.9 K | 67.43 ± 1
491.16 K | 73.44 ± 1.1
492.56 K | 76.32 ± 1.1
494.46 K | 79.92 ± 1.1
496.88 K | 85.24 ± 1.1

CCCCCCCCCCC [undecane]
Details | vapor or sublimation pressure [kPa]
434.5 K | 40 ± 1.1
434.6 K | 40.04 ± 0.88
438.71 K | 45.18 ± 0.89
442.2 K | 50.04 ± 0.92
445.4 K | 54.82 ± 0.95
448.68 K | 60.13 ± 0.98
451.59 K | 65.09 ± 1
454.55 K | 70.48 ± 1.1
458.59 K | 78.59 ± 1.1

CCCCCCCCCCCC [dodecane]
Details | vapor or sublimation pressure
453.92 K | 40.08 ± 0.86 kPa and 40 ± 1.1 kPa
456.87 K | 43.58 ± 0.87 kPa
459.31 K | 46.71 ± 0.89 kPa
461.72 K | 49.93 ± 0.92 kPa
465.47 K | 55.35 ± 0.93 kPa
467.52 K | 58.41 ± 0.96 kPa
470.69 K | 63.63 ± 0.99 kPa
474.33 K | 69.97 ± 1 kPa
478.47 K | 77.75 ± 1 kPa

CCCCCCCCO [octan-1-ol]
Details | vapor or sublimation pressure [kPa]
436.67 K | 40 ± 1.1
437.67 K | 40.08 ± 0.92
443.61 K | 48.62 ± 0.93
445.86 K | 52.15 ± 0.99
450.45 K | 60.03 ± 1
454.35 K | 67.6 ± 1.1
457.08 K | 74.25 ± 1.2
460.31 K | 81.52 ± 1.2
463.5 K | 89.16 ± 1.2
466.8 K | 97.64 ± 1.3

CCCCCCCCCC [decane]
Details | vapor or sublimation pressure [kPa]
414.08 K | 40 ± 0.9
414.18 K | 40 ± 1.1
420.5 K | 48.74 ± 0.93
425.83 K | 57.04 ± 0.98
431.14 K | 66.32 ± 1
435.6 K | 75.05 ± 1.1
439.77 K | 83.97 ± 1.1
443.51 K | 92.72 ± 1.2
446.01 K | 98.88 ± 1.2

CCCCCCO [hexan-1-ol]
Details | vapor or sublimation pressure [kPa]
402.36 K | 40 ± 1.1
403.66 K | 40.02 ± 1.1
407.89 K | 48.72 ± 1.1
413.31 K | 58.84 ± 1.1
418.35 K | 69.27 ± 1.1
421.9 K | 77.4 ± 1.2
425.15 K | 85.63 ± 1.3
427.54 K | 92.07 ± 1.6
429.19 K | 99.78 ± 2

CC(C)CC(C)(C)C [2,2,4-trimethylpentane]
Details | vapor or sublimation pressure [kPa]
372.26 K | 101.3 ± 2.2

CCO [ethanol]
Details | vapor or sublimation pressure [kPa]
351.44 K | 101.3 ± 2.2

CCCCCCCCCCCCCC [tetradecane]
Details | vapor or sublimation pressure [kPa]
489.17 K | 40 ± 0.85
489.26 K | 40.04 ± 0.86
491.29 K | 42.42 ± 0.86
492.53 K | 43.8 ± 0.86
495.18 K | 46.96 ± 0.87
496.08 K | 48.13 ± 0.88
497.96 K | 50.5 ± 0.88
498.07 K | 50.7 ± 0.89
